In data set [1] the test system is C. parapsilosis (ATCC22019). In words: Broth microdilution MIC (CLSI M27-A3 with modifications). The format is cell-based, Candida parapsilosis. Particulars: 2.5 × 10^3 CFU.ml^−1, Sabouraud medium, 24 h at 30°C, absorbance 595 nm. As for the experimental part:
The broth microdilution method was performed according to the Clinical and Laboratory Standards Institute Guideline M27-A3 with modifications to determine the Minimum Inhibitory Concentration (MIC; [Clinical Laboratory Standards Institute, 2008]).
Initially, the fungus C. parapsilosis (ATCC22019) was grown in a Petri dish containing Sabouraud Dextrose Agar medium (Dextrose 40 g/L; Peptic digestion of animal tissue 5.0 g.L^−1; and Agar 15 g.L^−1) for 48 h. Subsequently, a pre-inoculum was performed from a yeast colony that was placed in 10 ml of liquid Sabouraud medium and incubated for 16 h at 28°C, with a constant rotation of 200 rpm. After the incubation period, 2.5 × 10^3 CFU.ml^−1 of fungus per well was incubated with different peptide micromolar concentrations (Table 1) to assess the MIC for each peptide.
Fungal cells incubated with Sabouraud medium were used as negative control, while positive control was represented by fungal cells incubated in Sabouraud medium and amphotericin B (10 μM). Subsequently, plates were incubated for 24 h at 30°C. After this period, the absorbance was read (595 nm) in a BioTek spectrophotometer (PowerWaveTM HT Microplate Reader), and data of antifungal activity with percentage of inhibition of peptides were plotted in GraphPad Prism 8 Software.

Data set [2] has as its system K. pneumoniae (ATCC 13883). Format: cell-based, Klebsiella pneumoniae. The note with it: K. pneumoniae (ATCC13883); 5×10^5 CFU.ml^−1, Mueller-Hinton Broth, 37°C, 24 h, OD 595 nm, biological triplicates. As for the experimental part: (§1) Susceptibility tests were performed using clinical isolates of Klebsiella pneumoniae carbapenemase (KPC 1410503) and methicillin-resistant S. aureus (MRSA 3730592). Tests were also performed with ATCC (American Type Culture Collection) isolates of K. pneumoniae (ATCC 13883) and S. aureus (ATCC 25923).
(§2) Two multidrug-resistant clinical isolates and two ATCC isolates were chosen to perform microbial susceptibility testing as models for studies with bacteria susceptible to antimicrobials found in the Gram-Positive and Gram-Negative groups of bacteria.
(§3) The broth microdilution method was performed according to the Clinical and Laboratory Standards Institute (CLSI) M07-A10 protocol to determine the Minimum Inhibitory Concentration (MIC; [Clinical Laboratory Standards Institute, 2015]). The assay was performed on 96-well microplates (TPP, United States), containing 5×10^5 CFU.ml^−1 of each tested bacterium per well and different peptide micromolar concentrations (Table 1) in a final volume of 100 μl of Mueller-Hinton Broth (MH). Negative control was represented by bacteria incubated in MH medium, while positive control was represented by culture incubated in MH medium with Amikacin. Plates were kept under agitation at 37°C in a BioTek spectrophotometer (PowerWaveTM HT Microplate Reader) with optical density (OD) readings at 595 nm every 30 min for 24 h. Inhibition results were analyzed using GraphPad Prism 8 software by comparing the OD from negative control wells (100%) to those containing peptides. All tests were performed in biological triplicates.

A further data set relates to RAW 264.7 cells. In words: MTT cytotoxicity test against RAW 264.7. The format is cell-based, mice. The note with it: 24 h; for toxicity against RAW264.7 cells (in words): tested concentrations of Table 1 (128–16 μg.ml^−1). As for the experimental part:
The cell line RAW 264.7 was obtained from the Rio de Janeiro Cell Bank (CR108). These cells are macrophages derived from induced tumors in male BALB/c mice infected with Abelson’s murine leukemia virus ([Raschke et al., 1978]). RAW264.7 cells were grown in DMEM medium (Dulbecco’s Modified Eagle’s medium, composed of CaCl2 (anhydrous) 200 mg.ml^−1, Fe(NO3).9H2O 0.1 mg.ml^−1, KCL 400 mg.ml^−1, MgSO4 (anhydrous) 97.67 mg.ml^−1, NaCL 6.400 mg.ml^−1, NaH2PO4.H2O 125 mg.ml^−1) supplemented with 10% (v/v) of bovine fetal serum, 0.5% (v/v) of DMEM amino acid solution, 0.05% (w/v) gentamicin, 0.5% (w/v) of L-glutamine, and 0.5% (w/v) of penicillin/streptomycin (1,000 U.ml^−1) in an incubator containing 5% CO2, at 37°C, and 95% humidity ([Raschke et al., 1978]; [Nguyen et al., 2017]).
RAW 264.7 cells were seeded in 96-well plates, at a concentration of 10^4 cells/well, and incubated for 24 h. Each peptide was subsequently added at different micromolar concentrations (Table 1). Positive control was performed by cells in culture medium and negative control, as cell culture in lysis solution (10 mM Tris, 1 mM EDTA, and 0.1% Triton X-100, pH 7.4).
Cell viability analyses were performed in technical and biological replicates, and readings were obtained after 24 h of contact with peptides. At the end of the incubation period, MTT (Sigma-Aldrich, United States) was used to assess the ability of living cells to reduce salt 3-[4,5-dimethylthiazole-2-yl]-2,5-diphenyltetrazolium bromide for formazan production. Plates were read at 570 ηm ([Mosmann, 1983]) and results were expressed in the percentage of living cells. The results were analyzed using GraphPad Prism 8 software where a One-Way ANOVA statistical test was followed by Bonferroni’s multiple comparisons test.

For data set [3], the system named is methicillin-resistant S. aureus (MRSA 3730592). Format: cell-based, Staphylococcus aureus. The note with it: Methicillin-Resistant S. aureus—MRSA clinical isolate 3730592; 5×10^5 CFU.ml^−1, Mueller-Hinton Broth, 37°C, 24 h, OD 595 nm, biological triplicates. As for the experimental part: as §1, §2, §3
For another data set, the system named is S. aureus (ATCC 25923). Format: cell-based, Staphylococcus aureus. The note with it: S. aureus (ATCC25923); 5×10^5 CFU.ml^−1, Mueller-Hinton Broth, 37°C, 24 h, OD 595 nm, biological triplicates. The method, then: as §1, §2, §3

Molecules are shown by their SMILES. In brackets after ≈: the same amount, converted by molar mass. Where a SMILES comes first, the peptide text is derived from it.

For the compound `CC(C)C[C@H](NC(=O)[C@H](CCCNC(=N)N)NC(=O)[C@H](CCCCN)NC(=O)[C@H](Cc1ccccc1)NC(=O)[C@H](CC(C)C)NC(=O)[C@H](CCCCN)NC(=O)CNC(=O)[C@H](Cc1ccccc1)NC(=O)CN)C(=O)N[C@@H](C)C(=O)N[C@@H](CCCCN)C(=O)N[C@@H](C)C(=O)N[C@H](C(=O)N[C@@H](C)C(=O)N[C@@H](CCCCN)C(=O)N[C@@H](C)C(=O)N[C@H](C(=O)N[C@@H](C)C(N)=O)C(C)C)C(C)C` [Peptide R10b] (H-GFGKLFKRLAKAVAKAVA-NH2), the “Minimum inhibitory concentration (MIC)” value came out at 34.15 µM (≈ 64 µg/mL) in data set [1], 17.07 µM (≈ 32 µg/mL) in data set [2], 8.53 µM (≈ 16 µg/mL) in data set [3] and 8.53 µM (≈ 16 µg/mL) in the data set on S. aureus (ATCC 25923). Moreover, the “cell viability in RAW cells at the MIC value found for bacteria” value in the data set on RAW 264.7 cells (17.07 and 8.53 μM) is listed as “more than 50%”. Also, in the data set with RAW 264.7 cells, the “toxicity against RAW264.7 cells (in words)” value is reported as “high toxicity”.
In the case of `CC(C)C[C@H](NC(=O)[C@H](C)NC(=O)CNC(=O)[C@H](Cc1ccccc1)NC(=O)CN)C(=O)N[C@@H](Cc1ccccc1)C(=O)N[C@@H](CCCCN)C(=O)N[C@@H](Cc1ccccc1)C(=O)N[C@@H](CC(C)C)C(=O)N[C@@H](C)C(=O)N[C@@H](CCCCN)C(=O)N[C@@H](C)C(=O)N[C@H](C(=O)N[C@@H](C)C(=O)N[C@@H](CCCCN)C(=O)N[C@@H](C)C(=O)N[C@H](C(=O)N[C@@H](C)C(N)=O)C(C)C)C(C)C` [Peptide R6b] (H-GFGALFKFLAKAVAKAVA-NH2), the “Minimum inhibitory concentration (MIC)” value in data set [1] stood at 70.8 µM (≈ 128 µg/mL); in data set [2], 35.4 µM (≈ 64 µg/mL); in data set [3], 17.7 µM (≈ 32 µg/mL); with S. aureus (ATCC 25923), 17.7 µM (≈ 32 µg/mL). Moreover, in the data set on RAW 264.7 cells (at the MIC of R6b for these strains (17.7 μM in Table 3)), the “cell viability (RAW264.7) in the MIC found for the two strains of S. aureus” value was 62%. In addition, the “toxicity against RAW264.7 cells (in words)” value with RAW 264.7 cells was “high toxicity”.
In the case of `CC(C)C[C@H](NC(=O)[C@H](C)NC(=O)CNC(=O)[C@H](Cc1ccccc1)NC(=O)CN)C(=O)N[C@@H](Cc1ccccc1)C(=O)N[C@@H](CCCCN)C(=O)N[C@@H](CCCNC(=N)N)C(=O)N[C@@H](CC(C)C)C(=O)N[C@@H](C)C(=O)N[C@@H](CCCCN)C(=O)N[C@@H](C)C(=O)N[C@H](C(=O)N[C@@H](C)C(=O)N[C@@H](CCCCN)C(=O)N[C@@H](C)C(=O)N[C@H](C(=O)N[C@@H](C)C(N)=O)C(C)C)C(C)C` [Peptide R8b] (H-GFGALFKRLAKAVAKAVA-NH2), the “Minimum inhibitory concentration (MIC)” value in data set [1] was 35.21 µM (≈ 64 µg/mL); in data set [2], 17.60 µM (≈ 32 µg/mL); in data set [3], 17.60 µM (≈ 32 µg/mL); with S. aureus (ATCC 25923), 17.60 µM (≈ 32 µg/mL). Also, the “cell viability in RAW264.7 cells from the MIC concentration found for MRSA3730592, S. aureus ATCC25923, K. pneumoniae ATCC13883” value in the data set on RAW 264.7 cells (at the MIC of R8b for these strains (17.60 μM in Table 3)) was found to be 59%.
For the compound `CC(C)C[C@H](NC(=O)[C@H](C)NC(=O)CNC(=O)[C@H](Cc1ccccc1)NC(=O)CN)C(=O)N[C@@H](Cc1ccccc1)C(=O)N[C@@H](CCCCN)C(=O)N[C@@H](CCCNC(=N)N)C(=O)N[C@@H](CC(C)C)C(=O)N[C@@H](C)C(=O)N[C@@H](CCCCN)C(=O)N[C@@H](CCCCN)C(=O)N[C@H](C(=O)N[C@@H](C)C(=O)N[C@@H](CCCCN)C(=O)N[C@H](C(=O)N[C@H](C(=O)N[C@@H](C)C(N)=O)C(C)C)[C@@H](C)O)C(C)C` [Peptide R3b] (H-GFGALFKRLAKKVAKTVA-NH2), the “Minimum inhibitory concentration (MIC)” value in data set [1] turned out to be 33.60 µM (≈ 64 µg/mL); in data set [2], 67.21 µM (≈ 128 µg/mL); in data set [3], 67.21 µM (≈ 128 µg/mL); in the data set with S. aureus (ATCC 25923) it was 67.21 µM (≈ 128 µg/mL). In addition, the “toxicity to RAW264.7 cells at the MIC concentration (in words)” value in the data set on RAW 264.7 cells (R1b: MIC found for KPC1410503, R3b: MIC at high concentrations against all tested microorganisms) is recorded as “toxic”. Besides, in the data set with RAW 264.7 cells, the “toxicity against RAW264.7 cells (in words)” value was “high toxicity”.

These data come from PMC9433906, “Evaluation of the biotechnological potential of peptide Cupiennin 1a and analogs” (Frontiers in Microbiology, 2022).
